Results reported in article PMC6600292, “Potent Anti-Ovarian Cancer with Inhibitor Activities on Both Topoisomerase II and ^V600EBRAF of Synthesized Substituted Estrone Candidates” (Molecules, 2019).
Like-named read-outs stand apart in the source and are kept apart here.

How the values were obtained:
SKOV-3 cells = assay: MTT cytotoxicity assay against SKOV-3 ovarian cancer cells; format: cell-based; details: Homo sapiens, read-out: IC50, cytotoxicity against SKOV-3
Procedure: (§1) The cytotoxic activities of the synthesized derivatives against ovarian cancer cell lines (SKOV-3) were evaluated using standard MTT assay. SKOV-3 cells cultivated on DMEM medium supplemented with 10% FBS, […], 1% antibiotic/antimycotic solution and 3.6 g/L NaHCO3 were used. Cells were incubated under standard laboratory conditions. Before testing compounds, cells were trypsinized, centrifuged and prepared as per our developed protocol. MTT assay relies on the enzymatic conversion of the MTT substrate into purple formazan by living cells mitochondrial enzymes. Shortly, 96 well plates were seeded (10,000 cells/100 µL/well), then incubated for 24 h at standard conditions. Afterwards, cells were exposed to different concentrations from prepared compounds and incubated for another 24 h. Thereafter, MTT (10 µL, 5 mg/mL, PBS) were added to each well, and plates were incubated for 4 h. Supernatants were then replaced discarded with 200 µL of DMSO to dissolve the precipitated formazan crystals. Formazan absorbance, proportional to living cell number, was read at 550 nm using a microplate reader. Viability percentages were calculated and the corresponding IC50 values were obtained from the linear regression of the calibration curve. For comparison, doxorubicin (DOX) and resveratrol (RES) were used as positive controls. Furthermore, the effect of the newly synthesized derivatives was tested against normal fibroblast cell line to assess their toxicities.

in vitro = format: cell-based
Procedure: as §1

topoisomerase II = assay: Topoisomerase II relaxation assay; format: biochemical; details: topoisomerase II purified from P388 cells, relaxation of pBR-322 DNA; read-out: IC50, topoisomerase II inhibition
Procedure: The inhibitory effects of the synthesized compounds against topoisomerase II were investigated using relaxation assay according to Goyeneche, et al.. Topoisomerase II was purified from P388 cells, where enzyme unit corresponds to the activity required complete relaxation of […] of supercoiled pBR-322 DNA at 30 °C for 1 h. The assay was performed as per protocol and samples were subjected to electrophoresis (0.7% agarose gels, TBE buffer. Ethidium bromide-stained DNA was examined under UV light.

[1] = molecular target: T1, V600EBRAF (mutant BRAF kinase) (Homo sapiens, UniProt P15056, V600E); assay: In vitro ELISA-based kinase assay, V600EBRAF; format: biochemical; details: GST-MEK-His substrate
T1 construct: BRAF wild-type and V600E mutant kinase domains were expressed and purified; made in house; host or cells: Sf9 insect cells, baculovirus
T1 sequence (P15056 457-717 V600E limits assumed): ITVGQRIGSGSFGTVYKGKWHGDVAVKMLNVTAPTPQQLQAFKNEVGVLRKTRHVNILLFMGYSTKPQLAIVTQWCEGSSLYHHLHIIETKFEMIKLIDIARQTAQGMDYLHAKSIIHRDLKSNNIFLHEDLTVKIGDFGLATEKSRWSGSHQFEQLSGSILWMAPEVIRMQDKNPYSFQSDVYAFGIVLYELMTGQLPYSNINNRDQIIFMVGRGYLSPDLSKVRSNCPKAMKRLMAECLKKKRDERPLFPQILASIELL
Procedure: BRAF wild-type and V600E mutant kinase domains were expressed and purified according to Nakamura et al. [34]. Shortly, Sf 9 cells infected with BRAF kinase domain containing baculovirus were resuspended, sonicated, and then cleared using ultracentrifugation. Afterwards, the cleared lysate with mixed with equilibrated Talon resin, and the resin then washed with 10 column volumes of wash buffer and then eluted with buffer (25 mM Tris, pH 7.0, 250 mM NaCl, 160 mM imidazole, 10% glycerol). The eluant was then diluted, concentrated using Superdex 200 gel filtration column, purified as previously described and finally stored at –80 °C until use.
The previously prepared GST MEK-His protein was diluted in TTBS buffer (100 μL, 50 μg/mL), and then bound to 96-plate wells coated with glutathione (Pierce Biotechnology). Two DMSO-dilutions of each compound (1 µL) were added to 50 μL (50mM HEPES, pH7.0, 0.7 pmol of BRAF^V600E kinase). Tubes were incubated at ambient temperature for 1 h, then added to GST-MEK-His-plate wells. Afterwards, 50 μL of phosphorylation buffer were added to start kinase reaction (37 °C/30 min/shaking). Reaction was stopped, then substrate was added, and the signal was recorded. […]

[2] = SK-OV-3, SKOV-3 cells, MTT, 24 h exposure

Compound	melting point	IC50 (SKOV-3 cells; SK-OV-3, 24 h)	IC50 at 24 h (in vitro)	IC50 (topoisomerase II)	IC50 [1]	IC50 (SKOV-3 cells; [2])
COCC1CC2C3CCc4cc(O)ccc4C3CCC2(C)C1NN (stereo not drawn) [Compound 3a, 16-(α-Methoxy-methane)-17-hydrazino-estra-1(10),2,4-trien-[17,16-c]-3-ol]	199 to 201 °C	0.00423 ± 0.00012 µM	1.2 µM	0.00345 ± 0.00013 µM	0.041 ± 0.0016 µM	
COC(C)C1CC2C3CCc4cc(O)ccc4C3CCC2(C)C1NN (stereo not drawn) [Compound 3b, 16-(α-Methoxy-ethane)-17-hydrazino-estra-1(10),2,4-trien[17,16-c]-3-ol]	308 to 310 °C		2.45 µM			
CCOCC1CC2C3CCc4cc(O)ccc4C3CCC2(C)C1NN (stereo not drawn) [Compound 3c, 16-(α-Ethoxy-methane)-17-hydrazino-estra-1(10),2,4-trien-[17,16-c]-3-ol]	219 to 221 °C		5.67 µM			
CCOC(C)C1CC2C3CCc4cc(O)ccc4C3CCC2(C)C1NN (stereo not drawn) [Compound 3d, 16-(α-Ethoxy-ethane)-17-hydrazino-estra-1(10),2,4-trien-[17,16-c]-3-ol]	223 to 225 °C		7.44 µM			
CNNC1C(COC)CC2C3CCc4cc(O)ccc4C3CCC21C (centres unmarked) [Compound 3e]	222 to 224 °C		8.11 µM			
CNNC1C(C(C)OC)CC2C3CCc4cc(O)ccc4C3CCC21C (stereo not drawn) [Compound 3f, 16-(α-Methoxy-ethane)-17-[N-methyl-hydrazino]-estra-1(10),2,4-trien-[17,16-c]-3-ol]	310 to 312 °C		9.2 µM			
CCOCC1CC2C3CCc4cc(O)ccc4C3CCC2(C)C1NNC (stereo not drawn) [Compound 3g, 16-(α-Ethoxy-methane)-17-[N-methyl-hydrazino]-estra-1(10),2,4-trien-[17,16-c]-3-ol]	286 to 288 °C		11.2 µM			
CCOC(C)C1CC2C3CCc4cc(O)ccc4C3CCC2(C)C1NNC (stereo not drawn) [Compound 3h, 16-(α-Ethoxy-ethane)-17-[N-methyl-hydrazino]-estra-1(10),2,4-trien-[17,16-c]-3-ol]	280 to 282 °C		16.2 µM			
COCC1CC2C3CCc4cc(O)ccc4C3CCC2(C)C1NNc1ccccc1 (stereo not drawn) [Compound 3i, 16-(α-Methoxy-methane)-17-[N-phenyl-hydrazino]-estra-1(10),2,4-trien-[17,16-c]-3-ol]	312 to 314 °C		15.1 µM			
COC(C)C1CC2C3CCc4cc(O)ccc4C3CCC2(C)C1NNc1ccccc1 (stereo not drawn) [Compound 3j, 16-(α-Methoxy-ethane)-17-[N-phenyl-hydrazino]-estra-1(10),2,4-trien-[17,16-c]-3-ol]	229 to 231 °C		16.2 µM			
CCOCC1CC2C3CCc4cc(O)ccc4C3CCC2(C)C1NNc1ccccc1 (stereo not drawn) [Compound 3k, 16-(α-Ethoxy-methane)-17-[N-phenyl-hydrazino]-estra-1(10),2,4-trien-[17,16-c]-3-ol]	338 to 340 °C		17.8 µM			
CCOC(C)C1CC2C3CCc4cc(O)ccc4C3CCC2(C)C1NNc1ccccc1 (stereo not drawn) [Compound 3l, 16-(α-Ethoxy-ethane)-17-[N-phenyl-hydrazino]-estra-1(10),2,4-trien-[17,16-c]-3-ol]	288 to 300 °C		20.2 µM			
CN1CC2CC3C4CCc5cc(O)ccc5C4CCC3(C)C2=N1 (centres unmarked) [Compound 4a, 1`-Methyl-1`H-estra-1(10),2,4-trien-[17,16-c]pyrazoline-3-ol]	117 to 119 °C		23.3 µM			
CC1C2CC3C4CCc5cc(O)ccc5C4CCC3(C)C2=NN1C (centres unmarked) [Compound 4b, 1`-Methyl-1`H-5`-methyl-estra-1(10),2,4-trien-[17,16-c]pyrazoline-3-ol]	216 to 218 °C		24.6 µM			
CC12CCC3c4ccc(O)cc4CCC3C1CC1CN(c3ccccc3)N=C12 (centres unmarked) [Compound 4c, 1`-Phenyl-1`H-estra-1(10),2,4-trien-[17,16-c]pyrazoline-3-ol]	255 to 257 °C		25.6 µM			
CC1C2CC3C4CCc5cc(O)ccc5C4CCC3(C)C2=NN1c1ccccc1 (centres unmarked) [Compound 4d, 1`-Phenyl-1`H-5`-methyl-estra-1(10),2,4-trien-[17,16-c]pyrazoline-3-ol]	214 to 216 °C		30.3 µM	0.0436 ± 0.00098 µM		
COc1cccc2c1C(=O)c1c(O)c3c(c(O)c1C2=O)C[C@@](O)(C(=O)CO)C[C@@H]3O[C@H]1C[C@H](N)[C@H](O)[C@H](C)O1 [doxorubicin]						0.25 µM
Oc1ccc(/C=C/c2cc(O)cc(O)c2)cc1 [resveratrol]						0.055 µM
